Test results reported in ChEMBL document CHEMBL6153062, “Design, Synthesis, and Unprecedented Interactions of Covalent Dipeptide-Based Inhibitors of SARS-CoV-2 Main Protease and Its Variants Displaying Potent Antiviral Activity” (J Med Chem, 2025).

Legend:
[1] = test system: Severe acute respiratory syndrome coronavirus 2; assay: Selectivity index, ratio of IC50 for inhibition of SARS-CoV-2 MPro Q192S mutant to IC50 for inhibition of wild type SARS-CoV-2 MPro
[2] = test system: Severe acute respiratory syndrome coronavirus 2; assay: Selectivity index, ratio of IC50 for inhibition of SARS-CoV-2 MPro L50F/E166A/L167F mutant to IC50 for inhibition of wild type SARS-CoV-2 MPro
[3] = test system: Severe acute respiratory syndrome coronavirus 2; assay: Selectivity index, ratio of IC50 for inhibition of SARS-CoV-2 MPro A173 V mutant to IC50 for inhibition of wild type SARS-CoV-2 MPro
[4] = Inhibition of SARS-CoV-2 MPro deltaP168 mutant; design: species or system Severe acute respiratory syndrome coronavirus 2
[5] = Inhibition of SARS-CoV-2 MPro S144G mutant; design: species or system Severe acute respiratory syndrome coronavirus 2
[6] = Inhibition of SARS-CoV-2 MPro H172Q mutant; design: species or system Severe acute respiratory syndrome coronavirus 2
[7] = test system: Severe acute respiratory syndrome coronavirus 2; assay: Selectivity index, ratio of IC50 for inhibition of SARS-CoV-2 MPro G143S mutant to IC50 for inhibition of wild type SARS-CoV-2 MPro
[8] = test system: Severe acute respiratory syndrome coronavirus 2; assay: Selectivity index, ratio of IC50 for inhibition of SARS-CoV-2 MPro Q189E mutant to IC50 for inhibition of wild type SARS-CoV-2 MPro
[9] = Inhibition of SARS-CoV-2 MPro S144A mutant; design: species or system Severe acute respiratory syndrome coronavirus 2
[10] = test system: Severe acute respiratory syndrome coronavirus 2; assay: Selectivity index, ratio of IC50 for inhibition of SARS-CoV-2 MPro S144A mutant to IC50 for inhibition of wild type SARS-CoV-2 MPro
[11] = Inhibition of SARS-CoV-2 MPro S144Y mutant; design: species or system Severe acute respiratory syndrome coronavirus 2
[12] = test system: Severe acute respiratory syndrome coronavirus 2; assay: Selectivity index, ratio of IC50 for inhibition of SARS-CoV-2 MPro H172Y mutant to IC50 for inhibition of wild type SARS-CoV-2 MPro
[13] = test system: Severe acute respiratory syndrome coronavirus 2; assay: Selectivity index, ratio of IC50 for inhibition of SARS-CoV-2 MPro M165T mutant to IC50 for inhibition of wild type SARS-CoV-2 MPro
[14] = test system: Severe acute respiratory syndrome coronavirus 2; assay: Selectivity index, ratio of IC50 for inhibition of SARS-CoV-2 MPro deltaP168 mutant to IC50 for inhibition of wild type SARS-CoV-2 MPro
[15] = test system: Severe acute respiratory syndrome coronavirus 2; assay: Selectivity index, ratio of IC50 for inhibition of SARS-CoV-2 MPro H172F mutant to IC50 for inhibition of wild type SARS-CoV-2 MPro
[16] = Inhibition of SARS-CoV-2 MPro A173 V mutant; design: species or system Severe acute respiratory syndrome coronavirus 2
[17] = Inhibition of SARS-CoV-2 MPro G143S mutant; design: species or system Severe acute respiratory syndrome coronavirus 2
[18] = Inhibition of SARS-CoV-2 MPro M165T mutant; design: species or system Severe acute respiratory syndrome coronavirus 2
[19] = Inhibition of SARS-CoV-2 MPro S144M mutant; design: species or system Severe acute respiratory syndrome coronavirus 2
[20] = test system: Severe acute respiratory syndrome coronavirus 2; assay: Selectivity index, ratio of IC50 for inhibition of SARS-CoV-2 MPro E166 V mutant to IC50 for inhibition of wild type SARS-CoV-2 MPro
[21] = test system: Severe acute respiratory syndrome coronavirus 2; assay: Selectivity index, ratio of IC50 for inhibition of SARS-CoV-2 MPro S144G mutant to IC50 for inhibition of wild type SARS-CoV-2 MPro
[22] = test system: Severe acute respiratory syndrome coronavirus 2; assay: Selectivity index, ratio of IC50 for inhibition of SARS-CoV-2 MPro S144Y mutant to IC50 for inhibition of wild type SARS-CoV-2 MPro
[23] = test system: Severe acute respiratory syndrome coronavirus 2; assay: Selectivity index, ratio of IC50 for inhibition of SARS-CoV-2 MPro S144F mutant to IC50 for inhibition of wild type SARS-CoV-2 MPro
[24] = Inhibition of SARS-CoV-2 MPro S144F mutant; design: species or system Severe acute respiratory syndrome coronavirus 2
[25] = test system: Severe acute respiratory syndrome coronavirus 2; assay: Selectivity index, ratio of IC50 for inhibition of SARS-CoV-2 MPro S144M mutant to IC50 for inhibition of wild type SARS-CoV-2 MPro
[26] = Inhibition of SARS-CoV-2 MPro Q192S mutant; design: species or system Severe acute respiratory syndrome coronavirus 2
[27] = test system: Severe acute respiratory syndrome coronavirus 2; assay: Selectivity index, ratio of IC50 for inhibition of SARS-CoV-2 MPro H172Q mutant to IC50 for inhibition of wild type SARS-CoV-2 MPro
[28] = Inhibition of SARS-CoV-2 MPro L50F/E166A/L167F mutant; design: species or system Severe acute respiratory syndrome coronavirus 2
[29] = Inhibition of SARS-CoV-2 MPro Q189E mutant; design: species or system Severe acute respiratory syndrome coronavirus 2
[30] = Inhibition of SARS-CoV-2 MPro H172Y mutant; design: species or system Severe acute respiratory syndrome coronavirus 2
[31] = Inhibition of SARS-CoV-2 MPro E166 V mutant; design: species or system Severe acute respiratory syndrome coronavirus 2
[32] = Inhibition of SARS-CoV-2 MPro H172F mutant; design: species or system Severe acute respiratory syndrome coronavirus 2

| SMILES | IC50 [4] [µM] | IC50 [5] [µM] | IC50 [6] [µM] | IC50 [9] [µM] | IC50 [11] [µM] | IC50 [16] [µM] | IC50 [17] [µM] | IC50 [18] [µM] | IC50 [19] [µM] | IC50 [24] [µM] | IC50 [26] [µM] | IC50 [28] [µM] | IC50 [29] [µM] | IC50 [30] [µM] | IC50 [31] [µM] | IC50 [32] [µM] | further results |
| --- | --- | --- | --- | --- | --- | --- | --- | --- | --- | --- | --- | --- | --- | --- | --- | --- | --- |
| C=CC(=O)[C@H](Cc1cccc(Cl)c1)NC(=O)[C@H](CC(C)C)NC(=O)CSc1ccccc1 | 0.0654 | 0.254 | 0.159 | 0.0425 | 0.244 | 0.0824 | 0.155 | 0.26 | 0.414 | 0.219 | 0.261 | 0.239 | 0.211 | 0.297 | 0.236 | 0.146 | Ratio IC50 [1]: 22.3; Ratio IC50 [2]: 20.4; Ratio IC50 [3]: 7; Ratio IC50 [7]: 13.2; Ratio IC50 [8]: 18; Ratio IC50 [10]: 3.6; Ratio IC50 [12]: 25.4; Ratio IC50 [13]: 22.2; Ratio IC50 [14]: 5.6; Ratio IC50 [15]: 12.5; Ratio IC50 [20]: 20.2; Ratio IC50 [21]: 21.7; Ratio IC50 [22]: 20.9; Ratio IC50 [23]: 18.7; Ratio IC50 [25]: 35.4; Ratio IC50 [27]: 13.6 |
| C=CC(=O)[C@H](Cc1ccccc1)NC(=O)[C@H](CC(C)C)NC(=O)COc1ccc(Cl)cc1Cl | 0.368 | 0.472 | 0.39 | 0.328 | 0.497 | 0.14 | 0.23 | 1.39 | 0.745 | 0.636 | 0.488 | 0.392 | 0.714 | 1.28 | 0.409 | 0.313 | – |
| CC(C)(C)[C@H](NC(=O)C(F)(F)F)C(=O)N1C[C@H]2[C@@H]([C@H]1C(=O)N[C@H](C#N)C[C@@H]1CCNC1=O)C2(C)C | 0.047 | – | – | 0.0417 | 0.203 | 0.0855 | – | 0.181 | 0.426 | 0.176 | – | 0.512 | 0.199 | – | 2.62 | 1.7 | – |
